Read-outs that look alike come from different tables or passages of the source.
Tests used:
[1] = molecular target: PKD isoforms; assay: Radiometric PKD kinase assay, summary statement for PKD isoforms; assay type: biochemical, human; settings: approximate, all PKD isoforms; read-out: concentration that blocked 50% of PKD activity
Description: Recombinant human PKD1, 2, or 3 proteins were incubated in a mixture containing a peptide substrate derived from a PKD substrate, HDAC-5, and 10 different concentrations of the two compounds.

[2] = system: PC3 cells; assay: MTT assay; assay type: cell-based
Description: PC3 cells were plated in triplicates in 24-well plates. Cells were allowed to attach overnight. […] Cells were counted daily for a total of 5 days. Fresh media and inhibitor were added every 2 days. The means of triplicate determinations were plotted over time. The experiment was repeated twice and results from one representative experiment are shown. […] PC3 cells were seeded into 96-well plates (3000 cells/well) and were then incubated in media containing 0.3–100 µM inhibitors for 72 h. MTT solution was added to each well and incubated for 4 h. Optical density was read at 570 nm to determine cell viability. The IC50 was determined as the mean of two independent experiments for each compound. C. […] Cell cycle distribution was determined by flow cytometry after propidium iodide labeling of fixed cells. Statistical significance was determined by unpaired t-test and is indicated. **, p<0.01; ***, p<0.001. […] The label 1-NA-PP1 is taken from panels A and C, where it is the only substance named in the picture.
PC3 cells were seeded into 96-well plates (3000 cells/well) and allowed to attach overnight. Cells were then incubated in media containing […] inhibitors for 72 h. […] The plate was mix by shaking for 5 min and the optical density was determined at 570 nm.

[3] = system: PC3 cells; assay: Wound healing assay (cell migration); assay type: cell-based; settings: PC3, 30 µM, 22 h after wounding; control completely closed
Description: A.1-NA- PP1 blocked prostate cancer cell migration. PC3 cells were grown to confluence in 6-well plates. Monolayer was wounded and imaged immediately (0 h). […] Percentage wound healing was calculated as the percent of healed wound area as compared to the original wound. […] After 20 h, noninvasive cells were removed and invasive cells were fixed in 100% methanol, stained in 0.4% hematoxylin solution, and photographed. The number of cells that invaded the Matrigel matrix was determined by cell counts in 6 fields relative to the number of cells that migrated through the control insert. Percentage invasion was calculated as the percent of the cells invaded through Matrigel inserts vs. the total cells migrated through the control inserts. C. […] DU145 cells were infected with null, PKD1, and PKD3 adenoviruses (Adv-null, Adv-PKD1, and Adv-PKD3) at 100 MOI. After 24 h, cells were replated in control and Matrigel inserts, and a Matrigel invasion assay was conducted as described above. The overexpression of PKD1 and PKD3 was confirmed by Western blotting analysis (images below the graphs). […]
PC3 or DU145 cells were grown to confluence in 6-well plates. […] The wound gap was measured, and % wound healing was calculated. The average % wound healing was determined based on at least 6 measurements of the wound gap.

[4] = system: DU145 cells infected with Adv-PKD1 or Adv-PKD3; assay type: cell-based
Description: After 20 h, noninvasive cells were removed and invasive cells were fixed in 100% methanol, stained in 0.4% hematoxylin solution, and photographed. The number of cells that invaded the Matrigel matrix was determined by cell counts in 6 fields relative to the number of cells that migrated through the control insert. Percentage invasion was calculated as the percent of the cells invaded through Matrigel inserts vs. the total cells migrated through the control inserts. […] DU145 cells were infected with null, PKD1, and PKD3 adenoviruses (Adv-null, Adv-PKD1, and Adv-PKD3) at 100 MOI. After 24 h, cells were replated in control and Matrigel inserts, and a Matrigel invasion assay was conducted as described above. […] All the above experiments were repeated at least three times and data from a representative experiment are shown.

[5] = molecular target: T1, PKD1 (Homo sapiens, UniProt Q15139); assay: Radiometric PKD kinase assay, 10-point IC50; assay type: biochemical
T1 construct: GST; purchased Enzo Life sciences (Farmingdale, NY)
T1 sequence (Q15139 1-912): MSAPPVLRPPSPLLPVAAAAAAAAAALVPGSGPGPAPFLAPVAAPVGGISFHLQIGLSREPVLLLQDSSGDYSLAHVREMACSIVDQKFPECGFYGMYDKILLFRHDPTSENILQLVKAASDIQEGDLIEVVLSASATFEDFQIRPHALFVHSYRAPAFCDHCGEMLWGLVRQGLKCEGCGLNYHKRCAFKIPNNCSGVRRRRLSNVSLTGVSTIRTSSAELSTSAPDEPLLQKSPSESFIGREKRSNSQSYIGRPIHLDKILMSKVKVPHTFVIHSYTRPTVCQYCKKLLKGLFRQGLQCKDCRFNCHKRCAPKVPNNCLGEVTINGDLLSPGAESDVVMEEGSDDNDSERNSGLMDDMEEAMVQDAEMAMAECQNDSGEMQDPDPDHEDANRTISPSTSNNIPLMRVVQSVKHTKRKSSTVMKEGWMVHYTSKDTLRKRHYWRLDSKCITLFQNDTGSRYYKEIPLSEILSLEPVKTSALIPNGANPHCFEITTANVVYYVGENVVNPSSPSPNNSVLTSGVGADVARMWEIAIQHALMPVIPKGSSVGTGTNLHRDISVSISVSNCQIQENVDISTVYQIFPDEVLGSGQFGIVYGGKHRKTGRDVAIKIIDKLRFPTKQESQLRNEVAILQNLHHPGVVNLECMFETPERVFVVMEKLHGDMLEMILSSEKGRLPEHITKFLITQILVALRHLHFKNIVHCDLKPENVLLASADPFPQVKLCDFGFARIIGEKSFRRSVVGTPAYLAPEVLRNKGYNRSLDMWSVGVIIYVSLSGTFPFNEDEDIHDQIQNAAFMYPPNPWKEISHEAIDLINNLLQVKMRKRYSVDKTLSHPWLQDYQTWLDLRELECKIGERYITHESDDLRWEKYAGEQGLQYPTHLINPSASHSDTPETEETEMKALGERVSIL
Description: Phosphorylation of HDAC5 was detected in a kinase reaction having 1 µCi [γ-^32P] […] The reaction was incubated at 30°C for 10 minutes and 25 µL of the reaction was spotted on Whatman P81 filter paper. The filter paper was washed 3 times in 0.5% phosphoric acid, air dried and counted using Beckman LS6500 multipurpose scintillation counter. Percent PKD1 inhibition was graphed using GraphPad Prism software 5.0.

IC50 ([5]; mean ± SEM, read-out: IC50 PKD1) [µM]	IC50 ([5]; value in the figure, read-out: PKD1 IC50) [µM]	SMILES	IC50 [1] [µM]	IC50 ([2]; Homo sapiens, PC-3, 72 h, read-out: IC50 for cell death (MTT), PC3 cells, 72 h) [µM]	IC50 ([2]; read-out: IC50 for cell death (MTT), PC3 cells, 72 h) [µM]	wounded area remaining open [3] [%]	effect of PKD1 or PKD3 overexpression on inhibition of cell invasion [4]
–	–	CC(C)(C)n1nc(-c2cccc3ccccc23)c2c(N)ncnc21 [Compound 1-NA-PP1, 1-(t-Butyl)-3-(naphthalen-1-yl)-1H-pyrazolo[3,4-d]pyrimidin-4-amine]	~0.1	23.3 ± 5.7	~20	88.6	completely reversed
0.154	0.162	O=C(c1ccc(Nc2nccc(-c3cc4ccccc4s3)n2)cc1)N1CCC(N2CCCC2)CC1 [IKK-16, reference compound]	–	–	–	–	–
